This passage reports Activity results from ChEMBL document CHEMBL3045443, “Mode for Herbicidal Action of 2-Amino-3-chloro-1,4-naphthoquinone (ACN)” (Biosci Biotechnol Biochem, 1994).

Holding throughout (type): functional
Assay [1] deals with Scenedesmus acutus. The assay can be described thus: Herbicidal activity against Scenedesmus acutus assessed as ethane production per ml of packed-cell volume at 10^-6 M autotrophically for 20 hr by phytotoxicity assay (reference value: 0.28 nM/ml pcv).
For assay [2], the system named is Scenedesmus acutus. As to the kind of experiment: Herbicidal activity against Scenedesmus acutus assessed as protoporphyrin-IX content per ml of packed-cell volume at 10^-6 M autotrophically for 20 hr by phytotoxicity assay (reference value: 2 nM/ml pcv).
In assay [3] the test system is Scenedesmus acutus. The assay can be described thus: Herbicidal activity against Scenedesmus acutus assessed as chlorophyll content per ml of packed-cell volume at 10^-6 M autotrophically for 20 hr by phytotoxicity assay (reference value: 5.32 mg/ml pcv).
In assay [4] the test system is Scenedesmus acutus. The assay can be described thus: Herbicidal activity against Scenedesmus acutus assessed as chlorophyll content per ml of packed-cell volume at 10^-7 M heterotrophically for 20 hr by phytotoxicity assay (reference value: 6.52 mg/ml pcv).
Assay [5] deals with Scenedesmus acutus. The assay can be described thus: Herbicidal activity against Scenedesmus acutus assessed as growth measured as packed-cell volume per ml of culture at 10^-7 M heterotrophically for 20 hr by phytotoxicity assay (reference value: 1.5 ul pcv/ml).
Assay [6] concerns Scenedesmus acutus. The assay can be described thus: Herbicidal activity against Scenedesmus acutus assessed as chlorophyll content per ml of packed-cell volume at 10^-6 M heterotrophically for 20 hr by phytotoxicity assay (reference value: 6.52 mg/ml pcv).
Assay [7] relates to Scenedesmus acutus. The assay can be described thus: Herbicidal activity against Scenedesmus acutus assessed as chlorophyll content per ml of packed-cell volume at 10^-5 M heterotrophically for 20 hr by phytotoxicity assay (reference value: 6.52 mg/ml pcv).
Assay [8] has as its system Scenedesmus acutus. As to the kind of experiment: Herbicidal activity against Scenedesmus acutus assessed as growth measured as packed-cell volume per ml of culture at 10^-6 M heterotrophically for 20 hr by phytotoxicity assay (reference value: 1.5 ul pcv/ml).
For assay [9], the system named is Scenedesmus acutus. The assay can be described thus: Herbicidal activity against Scenedesmus acutus assessed as growth measured as packed-cell volume per ml of culture at 10^-5 M heterotrophically for 20 hr by phytotoxicity assay (reference value: 1.5 ul pcv/ml).
The test system of assay [10] is Scenedesmus acutus. As to the kind of experiment: Herbicidal activity against Scenedesmus acutus assessed as chlorophyll content per ml of packed-cell volume at 10^-5 M autotrophically for 20 hr by phytotoxicity assay (reference value: 5.32 mg/ml pcv).
The subject of assay [11] is Scenedesmus acutus. As to the kind of experiment: Herbicidal activity against Scenedesmus acutus assessed as packed-cell volume per ml of culture at 10^-6 M autotrophically for 20 hr by phytotoxicity assay (reference value: 6.6 ul pcv/ml).
Assay [12] has as its system Scenedesmus acutus. The assay can be described thus: Herbicidal activity against Scenedesmus acutus assessed as packed-cell volume per ml of culture at 10^-5 M autotrophically for 20 hr by phytotoxicity assay (reference value: 6.6 ul pcv/ml).
Assay [13] deals with Scenedesmus acutus. As to the kind of experiment: Herbicidal activity against Scenedesmus acutus assessed as ethane production per ml of packed-cell volume at 10^-5 M autotrophically for 20 hr by phytotoxicity assay (reference value: 0.28 nM/ml pcv).
Assay [14] concerns Scenedesmus acutus. As to the kind of experiment: Herbicidal activity against Scenedesmus acutus assessed as protoporphyrin-IX content per ml of packed-cell volume at 10^-5 M autotrophically for 20 hr by phytotoxicity assay (reference value: 2 nM/ml pcv).
In assay [15] the test system is Scenedesmus acutus. The assay can be described thus: Herbicidal activity against Scenedesmus acutus assessed as ethane production per ml of packed-cell volume at 10^-4 M autotrophically for 20 hr by phytotoxicity assay (reference value: 0.28 nM/ml pcv).
Assay [16] has as its system Scenedesmus acutus. As to the kind of experiment: Herbicidal activity against Scenedesmus acutus assessed as protoporphyrin-IX content per ml of packed-cell volume at 10^-4 M autotrophically for 20 hr by phytotoxicity assay (reference value: 2 nM/ml pcv).
Assay [17] concerns Scenedesmus acutus. As to the kind of experiment: Herbicidal activity against Scenedesmus acutus assessed as chlorophyll content per ml of packed-cell volume at 10^-4 M heterotrophically for 20 hr by phytotoxicity assay (reference value: 6.52 mg/ml pcv).
Assay [18] relates to Scenedesmus acutus. The assay can be described thus: Herbicidal activity against Scenedesmus acutus assessed as growth measured as packed-cell volume per ml of culture at 10^-4 M heterotrophically for 20 hr by phytotoxicity assay (reference value: 1.5 ul pcv/ml).
In assay [19] the test system is Scenedesmus acutus. As to the kind of experiment: Herbicidal activity against Scenedesmus acutus assessed as chlorophyll content per ml of packed-cell volume at 10^-4 M autotrophically for 20 hr by phytotoxicity assay (reference value: 5.32 mg/ml pcv).
Assay [20] concerns Scenedesmus acutus. As to the kind of experiment: Herbicidal activity against Scenedesmus acutus assessed as packed-cell volume per ml of culture at 10^-4 M autotrophically for 20 hr by phytotoxicity assay (reference value: 6.6 ul pcv/ml).

With `O=C1C2=C(CCCC2)C(=O)N1c1ccc(Cl)cc1` [CHLOROPHTHALIUM], the Activity worked out at 8.77 nM in assay [1]; 23.5 nM in [2]; 0.25 mg in [3]; 6.65 mg in assay [4]; 1.3 µL in assay [5]; 4.9 mg in assay [6]. The Activity in [7] stood at 2.85 mg; in assay [8], 1.1 µL; in assay [9], 1 µL; in assay [10], 0.17 mg; in assay [11] it was 2.8 µL; in [12] it was 2.4 µL.
`CCC(C)c1cc([N+](=O)[O-])cc([N+](=O)[O-])c1O` (stereo unspecified) [DINOSEB]: the Activity turned out to be 0.18 nM in [1]; 0.34 nM in assay [13]; 1.5 nM in assay [2]; 2 nM in assay [14]; 5.5 mg in [3]; 5.91 mg in assay [10]. The Activity was 6.6 µL in [11] and 5.3 µL in assay [12].
On to `N#Cc1cc(I)c(O)c(I)c1` [IOXYNIL], for which the Activity stood at 0.22 nM in assay [1]; 0.3 nM in assay [13]; 2.5 nM in assay [2]; 2 nM in assay [14]; 5.71 mg in assay [3]; 5.82 mg in assay [10]. Besides, the Activity came out at 6.5 µL in [11] and 5.7 µL in [12].
As for `NC1=C(Cl)C(=O)c2ccccc2C1=O`, the Activity came out at 0.23 nM in assay [1]; 7.51 nM in assay [13]; 10.43 nM in assay [15]; 2 nM in assay [2]; 2 nM in assay [14]; 3.5 nM in assay [16]. In addition, the Activity in [3] is 3.67 mg; in assay [6], 5.22 mg; in [7], 4.76 mg; in assay [17], 4.76 mg; in assay [8], 1.3 µL; in assay [9], 1.1 µL. Besides, the Activity in [18] stood at 1.1 µL; in assay [19], 0 mg; in [10], 0.07 mg; in assay [11], 4.2 µL; in [12] it was 2.6 µL; in assay [20] it was 2.1 µL.
